Test results from patent US20030073117A1, “Novel protein and gene encoding the protein” (Daiichi Pharmaceutical Co., Ltd., priority 2000, published 2003).

Columns and labels:
SAC1 [1] = target: T1, SAC1 (Mus musculus, UniProt Q9EPK8); experiment: Fluorescence measurement (fura-2) of SAC1 expression cells under touch stress; assay type: cell-based; details: SAC1 expression CHO cells (GFP positive), touched by glass pipette, added Gd^3+; no added Gd^3+ gave 12.8 ± 1.4, control cells 4.5 ± 3.8
T1 construct: the region containing the full length was amplified by PCR using primer set (A13st1 and mA13end1); expressed in transfected cells; host or cells: CHO cells, transient co-transfection of SAC1 in pCMV-SPORT with pEGFP-N1 as a separate marker plasmid
T1 sequence (Q9EPK8 whole entry): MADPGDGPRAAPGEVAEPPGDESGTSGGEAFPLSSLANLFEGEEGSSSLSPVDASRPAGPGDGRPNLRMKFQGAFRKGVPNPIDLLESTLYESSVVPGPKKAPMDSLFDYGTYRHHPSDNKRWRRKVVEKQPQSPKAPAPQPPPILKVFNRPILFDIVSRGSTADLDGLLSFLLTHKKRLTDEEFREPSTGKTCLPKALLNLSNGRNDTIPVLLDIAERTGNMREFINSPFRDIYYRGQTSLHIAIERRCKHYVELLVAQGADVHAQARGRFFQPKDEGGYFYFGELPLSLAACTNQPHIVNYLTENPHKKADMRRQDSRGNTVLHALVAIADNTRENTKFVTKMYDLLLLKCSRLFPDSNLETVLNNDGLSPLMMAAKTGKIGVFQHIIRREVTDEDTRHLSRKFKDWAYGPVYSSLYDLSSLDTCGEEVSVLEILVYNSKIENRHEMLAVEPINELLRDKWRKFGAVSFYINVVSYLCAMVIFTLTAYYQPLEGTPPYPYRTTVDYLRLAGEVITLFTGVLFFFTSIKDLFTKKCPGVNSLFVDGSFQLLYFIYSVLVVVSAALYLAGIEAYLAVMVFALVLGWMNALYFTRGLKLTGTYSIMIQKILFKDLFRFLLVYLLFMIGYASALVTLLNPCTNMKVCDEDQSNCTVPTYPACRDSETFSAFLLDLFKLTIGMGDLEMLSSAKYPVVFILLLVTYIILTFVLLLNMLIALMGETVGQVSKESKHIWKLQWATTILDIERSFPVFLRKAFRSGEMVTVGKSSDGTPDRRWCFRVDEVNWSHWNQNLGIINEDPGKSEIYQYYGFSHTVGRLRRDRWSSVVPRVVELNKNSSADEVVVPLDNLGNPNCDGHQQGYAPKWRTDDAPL
Experimental: (§1) The plasmid (pEGFP-N1; Clonetech Co.) expressing a green fluorescent protein was used as a marker for transfection. For the transient expression of protein, CHO cells were cultured in a HamF-12 culture medium (Gibco-BRL Co.) supplemented with 10% fetal bovine serum, 100 U/ml penicillin, and 100 μg/ml streptomycin. On the day before transformation, CHO cells (10^5 cells) were seeded to a 35 mm dish in which a cover slip coated with rat tail collagen was placed. On the next day, SAC1 plasmid (1 μg) in PCMV-SPORT (Gibco-BRL Co.) and pEGFP-N1 (1 μg) were added per one transfection to a mixture of serum-free medium (97 μl) and FuGENE6 (Roche, 3 μl) which had been incubated for 5 minutes at room temperature. […] The electrophysiological test was started after 24 hours and the fluorescence measurement was carried out 48 hours after the transfection.
For 2-3 hours prior to start of the test, the transformed cells were incubated with 10 μM fura-2AM (Dojin Co.) dissolved in a serum-free culture medium. GFP fluorescence at 480 nm and fura-2 fluorescence at 360/380 nm were visualized by a manual exchange of dichroic Olympus system mirrors (Merlin Co.). Images for the fluorescence at 480 nm and fluorescence at 360/380 nm were obtained every two seconds. The fluorescence intensity of the objective area was calculated for analysis. […]

SAC1 [2] = target: T1, SAC1; experiment: Single channel analysis (patch clamp) of SAC1 expression cells under negative pressure; assay type: cell-based
Experimental: as §1, with “placed.” for “placed. On the next day, SAC1 plasmid (1 μg) in PCMV-SPORT (Gibco-BRL Co.) and pEGFP-N1 (1 μg) were added per one transfection to a mixture of serum-free medium (97 μl) and FuGENE6 (Roche, 3 μl) which had been incubated for 5 minutes at room temperature.”
Patch clamp recordings were carried out according to the method described in a previous paper (Suzuki, M., Sato, J., Kutsuwada, K., Ooki, G. and Imai, M. (1999) J. Biol. Chem. 274, 6330-5). GFP positive cells were visualized by a fluorescence measurement with an emission of 490 nm (CAM 2000 system; Jusco Co., Ltd.). […] In single channel analysis, the current was recorded with an EPC-7 patch clamp amplifier (List-Electronic Co., Ltd.) and stored on a DAT recorder (DAT-200; Sony Corp.) at 10 KHz. […] The data were analyzed using Igor ver. […] To analyze the open probability in the presence of GdCl3, single channel amplitude was set for those without reagent and the mean open probability (Po) was determined by the records during 10 seconds. […]

[Cl][Gd]([Cl])[Cl] [Gd^3+, GdCl3]
change of the fura-2 fluorescence ratio (360 nm/380 nm) on mechanical stimulus (SAC1 [1]): 4.8 ± 1.4 (10) | response (mean open probability Po) to negative pressure (SAC1 [2]; 0.5 μM GdCl3 added to the pipette, cell-attached, FIG. 3C): not affected | effect on single channel activated by negative pressure (SAC1 [2]; transformed cells that express SAC1): blocked
